Source: US20260130907A1 (DANA-FARBER CANCER INSTITUTE, INC., priority 2022, published 2026)
Values after ≈ are worked out from the molar mass of the structure shown. Like-named read-outs stand apart in the source and are kept apart here.

Assays:
B cell lymphoma 6 (BCL6) = biological target: T1, B cell lymphoma 6 (BCL6) (Homo sapiens, UniProt P41182); assay: HiBiT cellular degradation assay in SU-DHL-4 cells; assay type: cell-based; details: for DC50: concentration to reach 50% degradation of endogenous SmBiT-tagged BCL6, SU-DHL-4 cells, 24 hours of compound treatment
T1 construct: Endogenous B cell lymphoma 6 (BCL6) was tagged with the 11-amino acid Small BiT (SmBiT); endogenous in cells; host or cells: SU-DHL-4 (CRISPR/Cas9 knock-in, single cell clone)
Description: DC50 (concentration to reach 50% degradation) values were determined from a cellular degradation assay (HiBiT, Promega™) in Su-DHL-4 cells (Table 1). Endogenous B cell lymphoma 6 (BCL6) was tagged with the 11-amino acid Small BiT (SmBiT) through clustered regularly interspaced short palindromic repeats (CRISPR)/CRISPR-associated protein 9 (Cas9) gene editing and single cell clone selection. After 24 hours of compound treatment, cells were lysed and incubated with Large BiT (LgBiT) protein to reconstitute intact nanoluciferase. Substrate was then added and relative luciferase units were measured. Degradation levels for each treatment were taken as a percentage compared to the control, 100% DMSO (Prism).

[1] = Metabolic stability in human liver microsome; assay type: in vitro ADME; details: pH 7.4; human liver microsomes with NADPH, 37° C., 0-60 min
Description: • K2HPO4 was dissolved in water to a final concentration of 50 mM, and then adjusted pH to 7.4 with HCl and filtered through a 0.22 μm filter.
• 1 mg/mL stock of terfenadine/tolbutamide with DMSO was prepared, and then made into quenching solution (5/10 ng/mL terfenadine/tolbutamide) with can.
• 10 mM test compound stock with DMSO was prepared, and then made into 200 μM working solution with DMSO.
• 10 mM control compound (dextromethorphan) stock with DMSO was prepared, and then made into 200 μM working solution with DMSO.
• Liver microsomes were thawed in 37° C. water bath, and then made into 0.63 mg/mL liver microsomes working solution with phosphate buffer.
• 5 mM NADPH working solution was prepared with phosphate buffer.
• a) 1.5 μL test compound/control compound working solution was added to 238.5 μL liver microsome (n=1). • b) The solution was pre-incubated at 37° C. for 5 min. • c) The reaction was started by adding 60 μL NADPH working solution. • d) At each time point (0, 5, 15, 30 and 60 min), 30 μL reaction mixture was removed and added to 300 μL quenching solution. • e) All samples were centrifuged at 4,000 rpm at 4° C. for 15 min, then 100 μL of supernatant was transferred with 100 μL water for LC-MS/MS analysis.

Kinetic solubility = assay type: physicochemical; details: kinetic from dmso stock
[2] = FaSSIF, read-out: Kinetic solubility (FaSSIF)
[3] = FeSSIF, read-out: Kinetic solubility (FeSSIF)
[4] = aqueous buffer, 50 mM phosphate buffer pH 7.4, 24 hours at room temperature, read-out: Kinetic solubility @pH 7.4

Row | SMILES | DC50 (B cell lymphoma 6 (BCL6)) [nM] | microsomal CLint at 1 µM [1] [µL/min/mg] | solubility kinetic at 24 h (Kinetic solubility; [2]) [µM] | solubility kinetic at 24 h (Kinetic solubility; [3]) [µM] | solubility kinetic at 24 h (Kinetic solubility; [4]) [µM] | BCL6 degrader status (in words) (B cell lymphoma 6 (BCL6); conclusion drawn from Table 1)
1 | CNC(=O)COc1cc2cc(Nc3nc(N4C[C@H](C)C[C@H](C)C4)ncc3Cl)ccc2n(C)c1=O [BI-3802] | 5 | 23.8 | 2.97 (≈ 1.44 µg/mL) | 11.3 (≈ 5.48 µg/mL) | < 1.56 | –
2 | C[C@@H]1CN(c2ncc(Cl)c(Nc3ccc4c(c3)n(CCC(C)(C)O)c(=O)n4C)n2)C[C@H](CN)C1(F)F (single isomer, unassigned) [Compound 2a] | 105 | < 6.1 | – | – | 266 (≈ 139 µg/mL) | –
3 | CNC(=O)COc1cc2cc(Nc3nc(N4C[C@@H](C)C(F)(F)[C@@H](C)C4)ncc3Cl)ccc2n(C)c1=O [Cmp A] | 5 | < 3.7 | < 1.56 | 1.82 (≈ 0.948 µg/mL) | < 1.56 | –
4 | C[C@@H]1CN(c2ncc(Cl)c(Nc3ccc4c(c3)n(CCC(C)(C)O)c(=O)n4C)n2)C[C@H](N)C1(F)F [Compound 1, 5-[[2-[(3S,5R)-3-Amino-4,4-difluoro-5-methyl-1-piperidyl]-5-chloro-pyrimidin-4-yl]amino]-3-(3-hydroxy-3-methyl-butyl)-1-methyl-benzimidazol-2-one] | 20 | < 6.1 | 208 (≈ 106 µg/mL) | 232 (≈ 118 µg/mL) | 108 (≈ 55.1 µg/mL) | degraders of BCL6
5 | CNC(=O)COc1cc2cc(Nc3nc(N4C[C@H](CCN)C(F)(F)[C@H](C)C4)ncc3Cl)ccc2n(C)c1=O (single isomer, unassigned) [Compound 51a] | 2 | < 6.1 | 6.35 (≈ 3.49 µg/mL) | 113 (≈ 62.2 µg/mL) | < 1.56 | –
6 | C[C@@H]1CN(c2ncc(Cl)c(Nc3ccc4c(c3)n(CCC(C)(C)O)c(=O)n4C)n2)C[C@H](C)C1(F)F [CCT-369260] | – | 12.3 | 2.92 (≈ 1.49 µg/mL) | 216 (≈ 110 µg/mL) | < 1.56 | –
7 | C[C@@H]1C[C@H](C)CN(c2ncc(Cl)c(Nc3ccc4c(c3)n(CCC(C)(C)O)c(=O)n4C)n2)C1 [Cmp B] | – | 30 | < 1.56 | 213 (≈ 101 µg/mL) | < 1.56 | –
